These are literature values, as cited in patent US20030153801A1, “Compositions of cyclooxygenase-2 selective inhibitors and radiation for inhibition or prevention of cardiovascular disease” (Pharmacia Corporation, priority 2001, published 2003).

One data set relates to restenosis. As to conditions: orally administered; stent implanted pig arteries.
Data set [1] concerns vascular smooth muscle cells. As to conditions: in vitro.
Data set [2] has as its system coronary intimal proliferation. Conditions: oral administration; swine model of restenosis.
The conditions of data set [3]: single dose pretreatment, intravenous, before coronary stenting.

As for `COc1ccc(C=CC(=O)Nc2ccccc2C(=O)O)cc1OC` [tranilast, N-(3,4-dimethoxycinnamoyl) anthranilic acid], in the data set on restenosis, the rate of restenosis entry is “lower”.

With `COc1cc(/C=C/C(=O)CC(=O)/C=C/c2ccc(O)c(OC)c2)ccc1O` [curcumin], in data set [1], the “proliferation of vascular smooth muscle cells” value is listed as “reduced”. As to `CN(C)CCCO[C@@H]1[C@H]2OC(C)(C)O[C@H]2O[C@@H]1[C@H](O)CO.Cl` [aniprilose hydrochloride], the coronary intimal proliferation entry in data set [2] is listed as “did not prevent”. As for `C[C@H]1C[C@@H]2[C@H]([C@@H](O)C[C@@]3(C)[C@H]2CC[C@]3(O)C(=O)CO)[C@@]2(C)C=CC(=O)C=C12` [methylpridnisolone], the “change in minimal lumen diameter at 6 months” value in data set [3] is recorded as “no effect”.
